# US20120276577A1, “Method for Determining the Susceptibility of a Cell Strain to Drugs” (ASSISTANCE PUBLIQUE - HOPITAUX DE PARIS, priority 2009, published 2012)
# Read-outs that look alike come from different tables or passages of the source.
# How the values were obtained:
# Candida albicans [1] = test: MALDI-TOF MS minimal profile change concentration (MPCC) determination; assay type: cell-based; conditions: for FCZ MPCCs: 15 h culture, MALDI-TOF MS
# Experimental: Fluconazole (FCZ) pure powder (Sigma Chemical CO., Saint-Louis, Mo., USA) was dissolved in pure water. Serial dilutions of drug (concentration ranged from 256 to 0.25 μg/ml), made into RPMI 1640 medium (with glutamine and without bicarbonate, Invitrogen) buffered with MOPS (0.165M) (Sigma Chemical CO., Saint-Louis, Mo., USA) and adjusted to pH 7 with sodium hydroxide (5N), were dispensed in 600 μl aliquots into sterile 24-well flat-bottomed microtiter plates.
# After cultivation during 48 h at 37° C. on Sabouraud agar medium, yeasts cells were transferred into RPMI 1640 medium (with glutamine but without bicarbonate, Invitrogen) buffered with MOPS (0.165M) (Sigma Chemical CO., Saint-Louis, Mo., USA), and adjusted to pH 7 with sodium hydroxide (5N). Then, 600 μl of RPMI with yeast (2.106 yeasts/imp were added to 600 μl of RPMI with FCZ into microtiter plates (final FCZ concentration ranged from 128 to 0.125 μg/ml), or in RPMI alone as negative control. Culture was performed in a 30° C. incubator for 15 hours, with continuous agitation.
# Yeast extraction was performed as follows: • (1) samples were centrifuged and the supernatant removed before the pellet was washed twice in pure water; • (2) the pellet was then resuspended in 300 μL of pure water, and 900 μL of ethanol were then added; • (3) after another round of centrifugation, 50 μL of 70% formic acid and 50 μL pure acetonitrile were added to the residual pellet and subsequent solution was repeatedly and thoroughly vortexed before a final centrifugation. Each centrifugation was performed at 10 000 rpm for 10 minutes at room temperature.
# The supernatant was distributed (0.5 μl droplet) in duplicate on a MALDI AnchorChip sample slide (Bruker-Daltonics, Bremen, Germany), then air-dried. The α-cyano-4-hydroxycinnamic acid (CHCA) matrix (Bruker-Daltonics), prepared at a concentration of 50 mg/ml in 50% acetonitrile and 50% water with 0.1% TFA, was sonicated for 5 min before being spotted (0.5 μl) over the dried sample. A DH5a Escherichia coil protein extract (Bruker-Daltonics) was deposited on the calibration spot of the Anchorchip for external calibration. MALDI analysis were performed on a Bruker Autoflex I MALDI TOF mass spectrometer with a nitrogen laser (337 nm) operating in linear mode with delayed extraction (260 ns) at 20 kV accelerating voltage. Each spectrum was automatically collected in the positive ion mode as an average of 500 laser shots (50 laser shots at 10 different spot positions). Laser energy was set just above the threshold for ion production. Mass range between 3,000 and 20,000 m/z (ratio mass/charge) was selected to collect the signals with the AutoXecute tool of flexControl acquisition software (Version 2.4; Bruker-Daltonics). Only peaks with a signal/noise ratio >3 were considered. […] For each cultivation condition, we collected mass spectra from 3 biological replicates and 2 technical replicates.
# Data obtained from the flex control acquisition software were a set of lists of mass/charge peaks and corresponding intensities, one list for each spectrum. For each FCZ concentration (11 FCZ concentrations and without FCZ), 6 spectra, obtained from 3 biological replicates tested in duplicate, were collected, so the whole initial set of data consisted of 72 spectra.
# Alignment was performed using a method based on the mean spectrum, using an approach similar to that recommended by Coombes et al. (Coombes K R, Baggerly K A, and Morris J S: Pre-Processing Mass Spectrometry Data. Fundamentals of Data Mining in Genomics and Proteomics, W Dubitzky, M Granzow, and D Berrar, eds. Kluwer, Boston, 79-99 (2007)).
# The mean spectrum of the 72 spots was computed, a simple peak detection algorithm was run on the mean spectrum, and a selection of the final peak locations was based on the mean intensity of the peak. For each spectrum, the peaks corresponding to the final peak locations were retained for the statistical analysis. […]
# Candida albicans [2] = conditions: CLSI, cited from earlier work
# [3] = C. albicans clinical isolate DSY281 (group A)
# [4] = C. albicans clinical isolate DSY284 (group A)
# [5] = C. albicans clinical isolate DSY289 (group F)
# [6] = C. albicans clinical isolate DSY290 (group G)
# [7] = C. albicans clinical isolate DSY292 (group G)
# [8] = C. albicans clinical isolate DSY 294 (group B)
# [9] = C. albicans clinical isolate DSY296 (group B)
# [10] = C. albicans clinical isolate DSY347 (group F)
# [11] = C. albicans clinical isolate DSY544 (group C)
# [12] = C. albicans clinical isolate DSY2260 (group D)
# [13] = C. albicans clinical isolate DSY2262 (group D)
# [14] = C. albicans clinical isolate DSY2284 (group H)
# [15] = C. albicans clinical isolate DSY2285 (group H)
# [16] = C. albicans clinical isolate DSY2321 (group E)
# [17] = C. albicans clinical isolate DSY2322 (group E)
# [18] = C. albicans clinical isolate DYS775 (group C)
# [19] = C. albicans reference strain ATCC 90028
smiles,measurement,setting,value
"OC(Cn1cncn1)(Cn1cncn1)c1ccc(F)cc1F [FCZ, Fluconazole]",FCZ MPCCs,Candida albicans [1]; [3],0.5 µg/mL
same,FCZ MPCCs,Candida albicans [1]; [4],8 µg/mL
same,FCZ MPCCs,Candida albicans [1]; [5],128 µg/mL
same,FCZ MPCCs,Candida albicans [1]; [6],0.25 µg/mL
same,FCZ MPCCs,Candida albicans [1]; [7],128 µg/mL
same,FCZ MPCCs,Candida albicans [1]; [8],0.25 µg/mL
same,FCZ MPCCs,Candida albicans [1]; [9],128 µg/mL
same,FCZ MPCCs,Candida albicans [1]; [10],0.125 µg/mL
same,FCZ MPCCs,Candida albicans [1]; [11],0.25 µg/mL
same,FCZ MPCCs,Candida albicans [1]; [12],4 µg/mL
same,FCZ MPCCs,Candida albicans [1]; [13],32 µg/mL
same,FCZ MPCCs,Candida albicans [1]; [14],0.5 µg/mL
same,FCZ MPCCs,Candida albicans [1]; [15],16 µg/mL
same,FCZ MPCCs,Candida albicans [1]; [16],0.5 µg/mL
same,FCZ MPCCs,Candida albicans [1]; [17],16 µg/mL
same,FCZ MPCCs,Candida albicans [1]; [18],64 µg/mL
same,FCZ MPCCs,Candida albicans [1]; [19],0.25 µg/mL
same,mass spectrometry spectra compared with the control culture,"Candida albicans [1]; DSY2260 C. albicans, cultures exposed up to 2 μg/ml FCZ, 15 h",indistinguishable
same,FCZ MICs,Candida albicans [2]; [3],1 µg/mL
same,FCZ MICs,Candida albicans [2]; [4],32 µg/mL
same,FCZ MICs,Candida albicans [2]; [5],128 µg/mL
same,FCZ MICs,Candida albicans [2]; [6],0.5 µg/mL
same,FCZ MICs,Candida albicans [2]; [7],128 µg/mL
same,FCZ MICs,Candida albicans [2]; [8],0.25 µg/mL
same,FCZ MICs,Candida albicans [2]; [9],128 µg/mL
same,FCZ MICs,Candida albicans [2]; [10],0.25 µg/mL
same,FCZ MICs,Candida albicans [2]; [11],0.5 µg/mL
same,FCZ MICs,Candida albicans [2]; [12],8 µg/mL
same,FCZ MICs,Candida albicans [2]; [13],64 µg/mL
same,FCZ MICs,Candida albicans [2]; [14],0.25 µg/mL
same,FCZ MICs,Candida albicans [2]; [15],16 µg/mL
same,FCZ MICs,Candida albicans [2]; [16],0.25 µg/mL
same,FCZ MICs,Candida albicans [2]; [17],16 µg/mL
same,FCZ MICs,Candida albicans [2]; [18],128 µg/mL
same,FCZ MICs,Candida albicans [2]; [19],0.25 µg/mL
